# Results taken from patent publication US10562887B2, “Triazolones and tetrazolones as inhibitors of ROCK” (BRISTOL-MYERS SQUIBB COMPANY, priority 2016, dated 2020).
# Target: ROCK2 (Homo sapiens (Human), UniProt O75116)
# Experiment: ROCK2 assay (peptide phosphorylation, LABCHIP 3000 Reader)
# Format: biochemical
# Details: 5 μM ATP, 1.5 μM peptide substrate
# Protocol: The effectiveness of compounds of the present invention as ROCK inhibitors can be determined in a 30 μL, assay containing 20 mM HEPES, pH 7.5, 20 mM MgCl2, 0.015% Brij-35, 4 mM DTT, 5 μM ATP and 1.5 μM peptide substrate (FITC-AHA-AKRRRLSSLRA-OH). Compounds were dissolved in DMSO so that the final concentration of DMSO was <2%, and the reaction was initiated with Rho kinase variants. After incubation, the reaction was terminated by the addition of EDTA and the phosphorylated and non-phosphorylated peptides separated using a LABCHIP® 3000 Reader (Caliper Life Sciences). […] Compounds were tested in dose-response format, and the inhibition of kinase activity was calculated at each concentration of compound. The inhibition data were fit using a curve-fitting program to determine the IC50; i.e., the concentration of compound required to inhibit 50% of kinase activity.
# Representative Examples were tested in the ROCK2 assay described above and found having ROCK2 inhibitory activity.
# ROCK2, sequence (O75116 whole entry, species assumed): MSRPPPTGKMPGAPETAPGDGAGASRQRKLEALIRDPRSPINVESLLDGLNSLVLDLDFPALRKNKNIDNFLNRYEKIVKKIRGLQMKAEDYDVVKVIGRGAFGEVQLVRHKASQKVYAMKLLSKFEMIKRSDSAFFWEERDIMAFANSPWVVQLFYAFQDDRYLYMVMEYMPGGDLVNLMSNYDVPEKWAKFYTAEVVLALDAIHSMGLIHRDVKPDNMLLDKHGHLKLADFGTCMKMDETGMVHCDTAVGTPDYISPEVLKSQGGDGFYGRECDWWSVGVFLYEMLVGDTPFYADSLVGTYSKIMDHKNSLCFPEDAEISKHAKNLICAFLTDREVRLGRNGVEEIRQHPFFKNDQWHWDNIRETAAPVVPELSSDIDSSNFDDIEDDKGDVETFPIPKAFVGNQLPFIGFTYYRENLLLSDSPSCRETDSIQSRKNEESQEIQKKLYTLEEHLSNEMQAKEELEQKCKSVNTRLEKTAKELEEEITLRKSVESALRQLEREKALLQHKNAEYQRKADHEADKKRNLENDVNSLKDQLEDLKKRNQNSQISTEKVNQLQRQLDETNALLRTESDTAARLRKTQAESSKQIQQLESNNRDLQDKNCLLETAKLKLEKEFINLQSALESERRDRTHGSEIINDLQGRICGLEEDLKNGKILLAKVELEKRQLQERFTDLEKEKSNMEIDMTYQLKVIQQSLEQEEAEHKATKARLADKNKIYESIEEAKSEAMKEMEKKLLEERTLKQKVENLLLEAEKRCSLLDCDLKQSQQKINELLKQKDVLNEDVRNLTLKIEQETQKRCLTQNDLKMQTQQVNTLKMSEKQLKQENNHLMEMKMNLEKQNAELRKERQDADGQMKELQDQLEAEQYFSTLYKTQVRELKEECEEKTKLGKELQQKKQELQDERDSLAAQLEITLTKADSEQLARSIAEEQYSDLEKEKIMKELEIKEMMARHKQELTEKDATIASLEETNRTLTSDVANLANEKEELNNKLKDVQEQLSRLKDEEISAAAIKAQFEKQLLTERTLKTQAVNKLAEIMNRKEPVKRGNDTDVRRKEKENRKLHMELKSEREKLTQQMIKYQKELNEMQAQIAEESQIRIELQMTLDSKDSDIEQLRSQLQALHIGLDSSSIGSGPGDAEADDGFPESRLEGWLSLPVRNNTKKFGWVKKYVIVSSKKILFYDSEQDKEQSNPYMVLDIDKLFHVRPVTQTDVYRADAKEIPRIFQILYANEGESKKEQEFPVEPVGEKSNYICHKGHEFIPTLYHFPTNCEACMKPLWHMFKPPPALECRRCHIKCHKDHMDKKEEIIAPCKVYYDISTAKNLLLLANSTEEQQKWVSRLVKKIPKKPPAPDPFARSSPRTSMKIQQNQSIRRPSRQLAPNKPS
row,Structure (SMILES),IC50
1,"COc1cccc(C(C)n2c(C)nn(-c3ccc(-c4cn[nH]c4)cc3)c2=O)c1 (single isomer, unassigned) [Example 118, 1-(4-(1H-pyrazol-4-yl)phenyl)-4-(1-(3-methoxyphenyl)ethyl)-3-methyl-1H-1,2,4-triazol-5(4H)-one]",5 to 50 nM
2,"COc1cccc(C(C)n2c(C)nn(-c3ccc(-c4cn[nH]c4)cc3)c2=O)c1 (single isomer, unassigned) [Example 119, 1-(4-(1H-pyrazol-4-yl)phenyl)-4-(1-(3-methoxyphenyl)ethyl)-3-methyl-1H-1,2,4-triazol-5(4H)-one]",5 to 50 nM
3,"CC(O)c1nn(-c2ccc(-c3cn[nH]c3)cc2)c(=O)n1Cc1ccccc1 (single isomer, unassigned) [Example 140, 1-(4-(1H-pyrazol-4-yl)phenyl)-4-benzyl-3-(1-hydroxyethyl)-1H-1,2,4-triazol-5(4H)-one]",5 to 50 nM
4,"CC(O)c1nn(-c2ccc(-c3cn[nH]c3)cc2)c(=O)n1Cc1ccccc1 (single isomer, unassigned) [Example 141, 1-(4-(1H-pyrazol-4-yl)phenyl)-4-benzyl-3-(1-hydroxyethyl)-1H-1,2,4-triazol-5(4H)-one]",5 to 50 nM
5,"COc1cc(Cn2c(C(C)O)nn(-c3ccc(-c4cn[nH]c4)cc3)c2=O)cc(OC)c1 (single isomer, unassigned) [Example 147, 1-(4-(1H-pyrazol-4-yl)phenyl)-4-(3,5-dimethoxybenzyl)-3-(1-hydroxyethyl)-1H-1,2,4-triazol-5(4H)-one]",50 to 250 nM
6,"O=c1n(-c2ccc(-c3cn[nH]c3)cc2)cnn1Cc1cccc(F)c1 [Example 1, 4-(4-(1H-pyrazol-4-yl)phenyl)-1-(3-fluorobenzyl)-1H-1,2,4-triazol-5(4H)-one]",50 to 250 nM
7,"O=c1n(-c2ccc(-c3cn[nH]c3)cc2)cnn1Cc1ccccc1 [Example 2, 4-(4-(1H-pyrazol-4-yl)phenyl)-1-benzyl-1H-1,2,4-triazol-5(4H)-one]",50 to 250 nM
8,"COc1cccc(Cn2ncn(-c3ccc(-c4cn[nH]c4)cc3)c2=O)c1 [Example 3, 4-(4-(1H-pyrazol-4-yl)phenyl)-1-(3-methoxybenzyl)-1H-1,2,4-triazol-5(4H)-one]",50 to 250 nM
9,"O=c1n(-c2ccc(-c3cn[nH]c3)cc2)cnn1Cc1cc(F)ccc1F [Example 4, 4-(4-(1H-pyrazol-4-yl)phenyl)-1-(2,5-difluorobenzyl)-1H-1,2,4-triazol-5(4H)-one]",250 to 2000 nM
10,"COc1cccc(Cn2ncn(-c3ccc(-c4cn[nH]c4)cc3OC)c2=O)c1 [Example 11, 4-(2-methoxy-4-(1H-pyrazol-4-yl)phenyl)-1-(3-methoxybenzyl)-1H-1,2,4-triazol-5(4H)-one]",50 to 250 nM
11,"COc1cc(-c2cn[nH]c2)ccc1-n1cnn(Cc2cccc(F)c2)c1=O [Example 12, 1-(3-fluorobenzyl)-4-(2-methoxy-4-(1H-pyrazol-4-yl)phenyl)-1H-1,2,4-triazol-5(4H)-one]",50 to 250 nM
12,"COc1cc(-c2cn[nH]c2)ccc1-n1cnn(Cc2cc(F)ccc2F)c1=O [Example 13, 1-(2,5-difluorobenzyl)-4-(2-methoxy-4-(1H-pyrazol-4-yl)phenyl)-1H-1,2,4-triazol-5(4H)-one]",250 to 2000 nM
13,"COc1cc(-c2cn[nH]c2)ccc1-n1cnn(Cc2cc(F)ccc2F)c1=O [Example 16, 1-(2,5-difluorobenzyl)-4-(2-methoxy-4-(1H-pyrazol-4-yl)phenyl)-1H-1,2,4-triazol-5(4H)-one]",50 to 250 nM
14,"COc1cccc(Cn2cnn(-c3ccc(-c4cn[nH]c4)cc3)c2=O)c1 [Example 18, 1-(4-(1H-pyrazol-4-yl)phenyl)-4-(3-methoxybenzyl)-1H-1,2,4-triazol-5(4H)-one]",< 5 nM
15,"O=c1n(Cc2cccc(F)c2)cnn1-c1ccc(-c2cn[nH]c2)cc1 [Example 19, 1-(4-(1H-pyrazol-4-yl)phenyl)-4-(3-fluorobenzyl)-1H-1,2,4-triazol-5(4H)-one]",< 5 nM
16,"O=c1n(Cc2cc(F)ccc2F)cnn1-c1ccc(-c2cn[nH]c2)cc1 [Example 20, 1-(4-(1H-pyrazol-4-yl)phenyl)-4-(2,5-difluorobenzyl)-1H-1,2,4-triazol-5(4H)-one]",5 to 50 nM
17,"COc1cc(F)cc(Cn2cnn(-c3ccc(-c4cn[nH]c4)cc3)c2=O)c1 [Example 21, 1-(4-(1H-pyrazol-4-yl)phenyl)-4-(3-fluoro-5-methoxybenzyl)-1H-1,2,4-triazol-5(4H)-one]",< 5 nM
18,"O=c1n(Cc2ccccc2F)cnn1-c1ccc(-c2cn[nH]c2)cc1 [Example 28, 1-(4-(1H-pyrazol-4-yl)phenyl)-4-(2-fluorobenzyl)-1H-1,2,4-triazol-5(4H)-one]",5 to 50 nM
19,"O=c1n(Cc2ccccc2Cl)cnn1-c1ccc(-c2cn[nH]c2)cc1 [Example 29, 1-(4-(1H-pyrazol-4-yl)phenyl)-4-(2-chlorobenzyl)-1H-1,2,4-triazol-5(4H)-one]",5 to 50 nM

# More lines, now with the values ahead:
row,IC50,Structure (SMILES)
1,5 to 50 nM,"COc1cccc(C(C)n2cnn(-c3ccc(-c4cn[nH]c4)cc3)c2=O)c1 (single isomer, unassigned) [Example 47, 1-(4-(1H-pyrazol-4-yl)phenyl)-4-(1-(3-methoxyphenyl)ethyl)-1H-1,2,4-triazol-5(4H)-one]"
2,< 5 nM,"COc1cccc(C(C)n2cnn(-c3ccc(-c4cn[nH]c4)cc3)c2=O)c1 (single isomer, unassigned) [Example 48, 1-(4-(1H-pyrazol-4-yl)phenyl)-4-(1-(3-methoxyphenyl)ethyl)-1H-1,2,4-triazol-5(4H)-one]"
3,50 to 250 nM,"COc1cc(-n2cnn(Cc3ccccc3)c2=O)ccc1-c1cn[nH]c1 [Example 5, 1-benzyl-4-(3-methoxy-4-(1H-pyrazol-4-yl)phenyl)-1H-1,2,4-triazol-5(4H)-one]"
4,5 to 50 nM,"COc1cccc(Cn2ncn(-c3ccc(-c4cn[nH]c4)c(OC)c3)c2=O)c1 [Example 6, 4-(3-methoxy-4-(1H-pyrazol-4-yl)phenyl)-1-(3-methoxybenzyl)-1H-1,2,4-triazol-5(4H)-one]"
5,50 to 250 nM,"COc1cc(-n2cnn(Cc3cccc(F)c3)c2=O)ccc1-c1cn[nH]c1 [Example 7, 1-(3-fluorobenzyl)-4-(3-methoxy-4-(1H-pyrazol-4-yl)phenyl)-1H-1,2,4-triazol-5(4H)-one]"
6,250 to 2000 nM,"COc1cc(-n2cnn(C(C)c3ccccc3)c2=O)ccc1-c1cn[nH]c1 (centres unmarked) [Example 8, 4-(3-methoxy-4-(1H-pyrazol-4-yl)phenyl)-1-(1-phenylethyl)-1H-1,2,4-triazol-5(4H)-one]"
7,50 to 250 nM,"COc1cc(-n2cnn(CCc3ccccc3)c2=O)ccc1-c1cn[nH]c1 [Example 9, 4-(3-methoxy-4-(1H-pyrazol-4-yl)phenyl)-1-phenethyl-1H-1,2,4-triazol-5(4H)-one]"
8,250 to 2000 nM,"COc1cc(-c2cn[nH]c2)ccc1-n1cnn(Cc2ccccc2)c1=O [Example 10, 1-benzyl-4-(2-methoxy-4-(1H-pyrazol-4-yl)phenyl)-1H-1,2,4-triazol-5(4H)-one]"
9,50 to 250 nM,"COc1cc(-c2cn[nH]c2)ccc1-n1cnn(CCc2ccccc2)c1=O [Example 14, 4-(2-methoxy-4-(1H-pyrazol-4-yl)phenyl)-1-phenethyl-1H-1,2,4-triazol-5(4H)-one]"
10,250 to 2000 nM,"CC(c1ccccc1)n1ncn(-c2ccc(-c3cn[nH]c3)cc2)c1=O (centres unmarked) [Example 15, 4-(4-(1H-pyrazol-4-yl)phenyl)-1-(1-phenylethyl)-1H-1,2,4-triazol-5(4H)-one]"
11,5 to 50 nM,"O=c1n(Cc2ccccc2)cnn1-c1ccc(-c2cn[nH]c2)cc1 [Example 17, 1-(4-(1H-pyrazol-4-yl)phenyl)-4-benzyl-1H-1,2,4-triazol-5(4H)-one]"
12,< 5 nM,"CC(c1ccccc1)n1cnn(-c2ccc(-c3cn[nH]c3)cc2)c1=O (centres unmarked) [Example 22, 1-(4-(1H-pyrazol-4-yl)phenyl)-4-(1-phenylethyl)-1H-1,2,4-triazol-5(4H)-one]"
13,< 5 nM,"COc1cc(-n2ncn(Cc3ccccc3)c2=O)ccc1-c1cn[nH]c1 [Example 23, 4-benzyl-1-(3-methoxy-4-(1H-pyrazol-4-yl)phenyl)-1H-1,2,4-triazol-5(4H)-one]"
14,< 5 nM,"COc1cccc(Cn2cnn(-c3ccc(-c4cn[nH]c4)c(OC)c3)c2=O)c1 [Example 24, 1-(3-methoxy-4-(1H-pyrazol-4-yl)phenyl)-4-(3-methoxybenzyl)-1H-1,2,4-triazol-5(4H)-one]"
15,5 to 50 nM,"COc1cc(-n2ncn(Cc3cc(F)ccc3F)c2=O)ccc1-c1cn[nH]c1 [Example 25, 4-(2,5-difluorobenzyl)-1-(3-methoxy-4-(1H-pyrazol-4-yl)phenyl)-1H-1,2,4-triazol-5(4H)-one]"
16,< 5 nM,"COc1cc(F)cc(Cn2cnn(-c3ccc(-c4cn[nH]c4)c(OC)c3)c2=O)c1 [Example 26, 4-(3-fluoro-5-methoxybenzyl)-1-(3-methoxy-4-(1H-pyrazol-4-yl)phenyl)-1H-1,2,4-triazol-5(4H)-one]"
17,< 5 nM,"COc1cc(-n2ncn(C(C)c3ccccc3)c2=O)ccc1-c1cn[nH]c1 (centres unmarked) [Example 27, 1-(3-methoxy-4-(1H-pyrazol-4-yl)phenyl)-4-(1-phenylethyl)-1H-1,2,4-triazol-5(4H)-one]"
18,< 5 nM,"COc1cc(-n2ncn(Cc3cccc(F)c3)c2=O)ccc1-c1cn[nH]c1 [Example 30, 4-(3-fluorobenzyl)-1-(3-methoxy-4-(1H-pyrazol-4-yl)phenyl)-1H-1,2,4-triazol-5(4H)-one]"
19,5 to 50 nM,"COc1cc(-n2ncn(Cc3ccccc3F)c2=O)ccc1-c1cn[nH]c1 [Example 31, 4-(2-fluorobenzyl)-1-(3-methoxy-4-(1H-pyrazol-4-yl)phenyl)-1H-1,2,4-triazol-5(4H)-one]"
